Experimental data published in article PMC4821887, “Identification of chemicals that mimic transcriptional changes associated with autism, brain aging and neurodegeneration” (Nature Communications, 2016).

Key:
rats = conditions: lowest dose tested; cited from earlier work
[1] = test system: mouse cortical neuron-enriched cultures; test: RNA-seq transcriptional screen with hierarchical clustering and cluster membership; format: cell-based; conditions: 24 h at non-toxic concentration; hierarchical clustering of 5,121 variably expressed genes
Protocol: Cultures were treated with the non-cytotoxic dose of each chemical, by exchanging half of the original medium with chemicals at 2 × concentration in prewarmed feeding medium, on DIV 7 for 24 h in 12-well plates at a density of 5 × 10^5 cells per well. RNA was isolated using RNeasy plus mini kit (Cat. #74134, Qiagen). RNA yield and quality were determined using a Nanodrop 1000 Spectrophotometer (Thermo Scientific). Samples were further assessed for quality using either an Agilent Bioanalyzer 2100 or TapeStation 2200 to obtain a RIN. RIN values exceeding 7 were used for sequencing. RNA samples were used to generate and barcode complementary DNA libraries using the TruSeq RNA Library Preparation Kit at the UNC High Throughput Sequencing Facility. Pools of 24 multiplexed samples were sequenced per lane on an Illumina HiSeq 2500 using 50-bp paired-end reads.
RNA-seq reads were filtered using TagDust and aligned to the reference mouse genome (mm9) with TopHat using default parameters. Reads aligning to ribosomal RNA genes were removed. Transcript abundance was estimated by computing Reads per kilobase per million mapped reads (RPKM) using RefSeq gene models aggregated by gene symbol. For differential expression analyses, raw counts over RefSeq exons were used, and then were compared across samples using DESeq[62].
RPKMs for all RefSeq genes and all samples were filtered such that a given gene had >90% of samples with RPKM >0 and gene length exceeded 500 bp. RPKMs were then log10-transformed, quantile-normalized, median-centred, and the effects due to culture or sequencing batch were removed using a mixed model analysis of variance. This batch correction step was performed on individual experiments rather than chemical–vehicle ratios to reduce the effects due to variations in culture composition as well as batch-to-batch variations at the level of sequencing. Genes were then median-centred again, and filtered such that their s.d. exceeded 0.1. Chemical replicates were then combined using the median. Classes of chemicals were then discovered in two ways. First, we performed hierarchical clustering using average linkage and Pearson correlation distance measures. The boundaries of the discovered classes from clustering were set by computing pairwise Spearman correlations for all samples. A given cluster had to have at least three members with the minimum pairwise Spearman correlation coefficient exceeding 0.2, though cluster members often exceeded a correlation of 0.6 (Supplementary Fig. 5c,d). Seven chemical clusters were discovered, however one was removed due to failing to have a positive silhouette width, a metric of cluster robustness. These definitions enabled the three positive control topoisomerase inhibitors to form a cohesive group of chemicals with known structural and functional similarity (cluster 5). None of the culture or sequencing batches contributed to the formation of any one of the final six clusters (Supplementary Fig. 4).

[2] = test system: mouse cortical neuron cultures
microtubules = conditions: cited from earlier work

Compound	Acute neurotoxicity (motor activity) (rats)	Chemical cluster assigned by gene expression [1]	Non-cytotoxic concentration identified with live/dead assay [2] [µM]	Effect on microtubules (microtubules)
CO/C=C(/C(=O)OC)c1ccccc1COc1cccc(C(F)(F)F)n1 [Picoxystrobin]	caused acute neurotoxicity (reduced motor activity) at the lowest dose tested	–	–	–
C=C(C)[C@H]1Cc2c(ccc3c2O[C@@H]2COc4cc(OC)c(OC)cc4[C@@H]2C3=O)O1 [rotenone]	–	cluster 2	0.01	destabilizes microtubules
